Data set [1] in a line: Metabolic stability in human liver microsomes assessed as intrinsic clearance. Type of data set: ADME, Microsome. The conditions noted are these: read-out: CLH.
The nature of data set [2]: Metabolic stability in human liver microsomes assessed as half life. In kind it is ADME, Microsome. (In general: Microsomes from liver hold many membrane-bound enzymes, among them those of drug oxidation.)
Data set [3] is described as follows: Half life in Sprague-Dawley rat at 2 mg/kg, iv measured upto 60 mins by LC-MS/MS analysis. The conditions noted are these: in vivo. In kind it is ADME, organism-based.
Data set [4] can be described thus: Tmax in Sprague-Dawley rat at 2 mg/kg, iv measured […] by LC-MS/MS analysis. In kind it is ADME, organism-based. Particulars: in vivo.
Data set [5] can be described thus: Tmax in Sprague-Dawley rat at 10 mg/kg, po measured […] by LC-MS/MS analysis. The conditions noted are these: in vivo. In kind it is ADME, organism-based.
Data set [6] in a line: Oral bioavailability in Sprague-Dawley rat at 10 mg/kg measured […] by LC-MS/MS analysis. In kind it is ADME, organism-based. Particulars: in vivo.
Data set [7] is described as follows: Cmax in Sprague-Dawley rat at 2 mg/kg, iv measured […] by LC-MS/MS analysis. Type of data set: ADME, organism-based. Particulars: in vivo.
Data set [8] is described as follows: Cmax in Sprague-Dawley rat at 10 mg/kg, po measured […] by LC-MS/MS analysis. Particulars: in vivo. In kind it is ADME, organism-based.
Data set [9] in a line: AUC (0 to t) in Sprague-Dawley rat at 2 mg/kg, iv measured upto 60 mins by LC-MS/MS analysis. Type of data set: ADME, organism-based. The conditions noted are these: in vivo.
The nature of data set [10]: AUC (0 to t) in Sprague-Dawley rat at 10 mg/kg, po measured upto 60 mins by LC-MS/MS analysis. In kind it is ADME, organism-based. Particulars: in vivo.

Structures are written as SMILES.

Experimental findings from ChEMBL document CHEMBL6121057, “Discovery of an Orally Bioavailable STING Inhibitor with In Vivo Anti-Inflammatory Activity in Mice with STING-Mediated Inflammation” (J Med Chem, 2025) are described below.

The term half-life denotes how long it takes for the measured level to halve. Consider `O=C(Nc1ccc(C2CCC(F)(F)CC2)cc1)Nc1c[nH]c2ccc(F)cc12`, for which, in [1], the CLint scaled was 21.7 mL/min/kg. In addition, the half-life in data set [2] came out at 41 min.

Turning to `CCc1ccc(NC(=O)Nc2c[nH]c3ccc(F)cc23)cc1`, the CLint scaled in data set [1] came out at 53 mL/min/kg. Besides, the half-life in data set [2] was 16.9 min.

As a reminder, the Tmax is the time from dosing to the highest level. For orientation: bioavailability means the share of a dose that reaches the circulation, judged against a reference dose that is usually intravenous. Read a high bioavailability as good availability. One may read the Cmax as the highest concentration seen after dosing. The term AUC(0-t) denotes exposure summed from dosing to a finite time, without extrapolation to infinity. For `O=C(Nc1ccc(C(F)(F)F)cc1)Nc1c[nH]c2ccc(Cl)cc12`, the values for the half-life in [3] and in [2] were 48 min and 139 min, respectively. The Tmax in data set [4] was found to be 6 min; in data set [5], 252 min. Moreover, the CLint scaled in [1] was determined as 6.4 mL/min/kg. In addition, in data set [6], the bioavailability was found to be 4.6%. The figures for the Cmax in [7] and in [8] were 842 ng/mL and 37 ng/mL, respectively. In addition, the AUC(0-t) at 1 h in data set [9] was found to be 536 ng·h/mL; in data set [10] it was 125 ng·h/mL.

In the case of `CC(C)(C)c1ccc(NC(=O)Nc2c[nH]c3ccc(F)cc23)cc1`, the CLint scaled in [1] was determined as 76.3 mL/min/kg. In addition, the half-life in data set [2] was found to be 16.3 min.

Regarding `O=C(Nc1ccc(C(F)(F)F)cc1)Nc1c[nH]c2ccc(F)cc12`, the CLint scaled in data set [1] was found to be 41 mL/min/kg. Also, the half-life in data set [2] was 30.4 min.

`CCc1ccc(NC(=O)Nc2c[nH]c3ccccc23)cc1`: the half-life is 12 min in data set [3] and 6.2 min in data set [2]. Also, the Tmax in data set [4] was determined as 6 min; in [5], 48 min. Besides, the CLint scaled in [1] came to 143 mL/min/kg. In addition, the bioavailability in data set [6] amounted to 0.6%. Moreover, the Cmax in data set [7] amounted to 1320 ng/mL; in data set [8], 8 ng/mL. Besides, the AUC(0-t) at 1 h in data set [9] stood at 387 ng·h/mL; in [10], 12 ng·h/mL.
